The text below walks through data of article PMC5345657, “Targeting myeloid differentiation protein 2 by the new chalcone L2H21 protects LPS‐induced acute lung injury” (Journal of Cellular and Molecular Medicine, 2016).

This experiment has as its target T1, MD-2 (myeloid differentiation protein 2, rhMD-2) (Homo sapiens, UniProt Q9Y6Y9).
T1 construct: gene LY96; recombinant human MD-2 (rhMD-2, R&D Systems)
T1 sequence (Q9Y6Y9 19-160): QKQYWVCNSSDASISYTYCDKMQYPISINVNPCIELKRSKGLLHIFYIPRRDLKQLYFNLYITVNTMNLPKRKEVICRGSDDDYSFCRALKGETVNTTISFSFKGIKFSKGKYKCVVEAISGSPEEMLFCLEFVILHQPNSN
As to the kind of experiment: SPR (ProteOn XPR36); supported by bis-ANS displacement and biotin-LPS competition ELISA; R90A and Y102A abolish binding. In general terms: ELISA stands for enzyme-linked immunosorbent assay.

For `COc1cccc(/C=C/C(=O)c2ccc(O)c(O)c2)c1OC` [L2H21, (E)‐2,3‐Dimethoxy‐3′,4′‐dihydroxychalcone], the Kd came to 19.1 µM.

For orientation: Kd means the equilibrium constant for the complex coming apart. A high value points to a looser complex.
